Assay results taken from paper PMC11381475, “Biopharmaceutical profiling of anti-infective sanggenons from Morus alba root bark for inhalation administration” (International Journal of Pharmaceutics: X, 2024).

How the values were obtained:
[1] = test system: lung epithelial monolayers; details: cited from earlier work

## colistin
[1]
  Papp: 0.04 ± 0.02 × 10^−6 cm/s

## O=C1OC2(c3ccc(O)cc3Oc3cc(O)ccc32)c2ccccc21 [fluorescein]
Calu-3 monolayer
  fluorescein permeation across Calu-3 monolayer: no fluorescein permeation was detected

## NC[C@H]1O[C@H](O[C@H]2[C@H](O)[C@@H](O[C@H]3O[C@H](CO)[C@@H](O)[C@H](N)[C@H]3O)[C@H](N)C[C@@H]2N)[C@H](N)C[C@@H]1O [tobramycin]
[1]
  Papp: < 5e-08 cm/s

## C[C@H]1[C@H](NC(=O)/C(=N\OC(C)(C)C(=O)O)c2csc(N)n2)C(=O)N1S(=O)(=O)O [aztreonam]
[1]
  Papp: 0.07 ± 0.02 × 10^−6 cm/s
